Molecular target: μ (MOP) (h) receptor (Homo sapiens, UniProt P35372)
Assay: Cellular functional assay, μ (MOP) (h) antagonist effect (cAMP, HTRF)
Format: cell-based
Settings: human recombinant (CHO cells)
Description: The compounds are tested at several concentrations to determine their IC50 or EC50. Cellular agonist effects are calculated as percent of control response to a known reference agonist for each target and cellular antagonist effect is calculated as a percent inhibition of control reference agonist response for each target. The following assay is performed to determine the effect of the Compound of Formula II-B on the μ (MOP) (h) receptor: [table] The results are expressed as a percent of control agonist response: and as a percent inhibition of control agonist response: obtained in the presence of the Compound of Formula II-B or II-C. […] For the antagonists, the apparent dissociation constants (KB) are calculated using the modified Cheng Prusoff equation: [formula] where A=concentration of reference agonist in the assay, and E[…]=EC50 value of the reference agonist.

μ (MOP) (h) receptor, sequence (P35372 whole entry): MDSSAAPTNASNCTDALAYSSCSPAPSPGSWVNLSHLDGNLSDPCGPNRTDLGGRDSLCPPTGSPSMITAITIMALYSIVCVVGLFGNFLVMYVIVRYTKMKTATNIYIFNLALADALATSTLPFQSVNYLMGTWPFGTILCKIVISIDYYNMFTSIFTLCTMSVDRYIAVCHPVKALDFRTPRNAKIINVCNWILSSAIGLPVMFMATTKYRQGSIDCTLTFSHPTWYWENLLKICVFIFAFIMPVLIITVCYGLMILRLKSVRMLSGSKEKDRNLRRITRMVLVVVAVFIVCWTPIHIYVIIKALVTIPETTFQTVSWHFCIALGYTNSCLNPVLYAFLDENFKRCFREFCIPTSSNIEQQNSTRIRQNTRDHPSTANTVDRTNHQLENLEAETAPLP

SMILES: Fc1ccc2c(CCCN3CC[C@H]4[C@@H](C3)c3cccc5c3N4CCN5)n[nH]c2c1 [Formula II-C]
- IC50 (unit inferred, highest concentration tested, DAMGO (20 nM)): > 10000 nM

SMILES: CN1C(=O)CN2c3c(cccc31)[C@@H]1CN(CCCc3n[nH]c4cc(F)ccc34)CC[C@@H]12 [Formula II-B]
- IC50 (DAMGO (20 nM) stimulus, cAMP, 10 min @ 37° C.): 1300 nM
- Kb (modified Cheng Prusoff equation, DAMGO (20 nM), read-out: μ (MOP) (h) (antagonist effect) KB (apparent dissociation constant)): 140 nM

From US10906906B2, “Organic compounds” (INTRA-CELLULAR THERAPIES, INC., priority 2016, dated 2021)
